# From patent publication US20250257075A1, “MACROCYCLIC INHIBITORS OF KRAS FOR THE TREATMENT OF CANCER” (Hoffmann-La Roche Inc., priority 2022, published 2025)
# Tests used:
# [1] = tested on: NCI-H358 cells (KRAS G12C); assay: Cell viability assay, G12C; format: cell-based, human; conditions: Homo sapiens; NCI-H358, 72 hrs, Cell Counting Kit-8
# Description: (§1) The purpose of this cellular assay was to determine the effects of test compounds on the proliferation of human cancer cell lines NCI-H358 (ATCC-CRL5807) cells, AGS (ATCC-CRL-1739) cells, SW620 (ATCC-CCL-227) over a 3-day treatment period by quantifying the amount of NADPH present at endpoint using Cell Counting Kit-8.
# (§2) Cells were seeded at 5,000 cells/well (NCI-H358), 2,000 cells/well (AGS) 2,000 cells/well (SW620) in 96-well assay plates (Corning-3699) and incubated overnight. On the day of the assay, diluted compounds were then added in a final concentration of 0.5% DMSO. After 72 hrs incubation, a tenth of the volume of cell counting kit 8 (Dnjindo-CK04) was added into each well. Read the signal (OD450 minus OD650) using EnVision after 2 hrs incubation. IC50 was determined by fitting a 4-parameter sigmoidal concentration response model.
# [2] = tested on: phosphorylation of ERK, KRAS G12D in AGS cells; assay: pERK inhibition assay, G12D; format: cell-based, human; conditions: Homo sapiens, 4 hours of incubation
# Description: (§3) This assay is to measure the ability of test compounds in inhibiting the phosphorylation of ERK, the downstream signaling of KRAS G12C in NCI-H358 cells, KRAS G12D in AGS cells, and KRAS G12V in SW620. NCI-H358 (ATCC-CRL5807) cells, AGS (ATCC-CRL-1739) cells, SW620 (ATCC-CCL-227) cells were all grown and maintained using RPMI-1640 medium (Thermo Fisher Scientific) with 10% fetal bovine serum and 1% penicillin/streptomycin. On the day prior to compound addition, cells were plated in tissue culture-treated 96 well plates (Corning-3699) at a density of 30,000 cell/well, 20,000 cell/well, 30,000 cell/well for NCI-H358, AGS and SW620 respectively, and allowed for attachment overnight. Diluted compounds were then added in a final concentration of 0.5% DMSO. After 4 hours of incubation, the medium was removed, 100 μL of 4% formaldehyde was added, and the assay plates were incubated at room temperature for 20 minutes. The plates were then washed once with phosphate buffered saline (PBS), and permeabilized with 100 μL of chilled methanol for 10 minutes. Non-specific antibody binding to the plates was blocked using 50 μL 1×BSA blocking buffer (Thermo-37520, 10-fold dilution by Phosphate-Buffered Saline Tween (PBST) for at least 1 hour at room temperature.
# (§4) The amount of phosphor-ERK was determined using an antibody specific for phosphorylated form of ERK. Primary antibody (pERK, CST-4370, Cell Signaling Technology) was diluted 1:300 in blocking buffer, with 50 μL aliquoted to each well, and incubated overnight at 4° C. Cells was washed five times for 5 minutes with PBST. Secondary antibody (HRP-linked anti-rabbit IgG, CST-7074, Cell Signaling Technology) was diluted 1:1000 in blocking buffer, and 50 μL was added to each well and incubated 1-2 hrs at room temperature. Cells was washed 5 times for 5 minutes with PBST, 100 μL TMB ELISA substrate (abcam-ab171523) were added and gently shake for 20 minutes. 50 μL stop solution (abcam-ab171529) were added, and then read the signal (OD450) by EnVision.
# (§5) IC50 was determined by fitting a 4-parameter sigmoidal concentration response model.
# [3] = target: KRAS G12D binding to BRAF (Homo sapiens, UniProt P01116+P62937, G12D); assay: KRAS-BRAF with CYPA (500 nM) interaction assay (TR-FRET), G12D; format: biochemical; conditions: 3 hours
# Chain of KRAS G12D binding to BRAF (P01116 1-188 isoform P01116-2 G12D): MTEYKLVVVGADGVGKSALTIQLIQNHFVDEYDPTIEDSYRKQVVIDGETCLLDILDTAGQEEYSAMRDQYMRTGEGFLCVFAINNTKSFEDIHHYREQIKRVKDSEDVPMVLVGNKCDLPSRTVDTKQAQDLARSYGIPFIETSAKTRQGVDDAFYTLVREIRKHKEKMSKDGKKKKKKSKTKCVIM
# Chain of KRAS G12D binding to BRAF (P62937 whole entry): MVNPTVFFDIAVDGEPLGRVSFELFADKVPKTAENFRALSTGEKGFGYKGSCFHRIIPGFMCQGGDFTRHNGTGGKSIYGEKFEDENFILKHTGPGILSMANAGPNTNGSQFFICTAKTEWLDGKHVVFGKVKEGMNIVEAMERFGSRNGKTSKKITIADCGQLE
# Description: (§6) Kras-BRAF with CYPA (500 nM) Interaction Assay In this example, TR-FRET was also used to measure the compound or compound-CYPA dependent disruption of the KRAS G12C-BRAF complex. This protocol was also used to measure disruption of KRAS G12D or KRAS G12V binding to BRAF by a compound of the invention, respectively. […] TR-FRET signal was read on a […] microplate reader (Ex320 nm, Em 665/615 nm). Compounds that facilitate disruption of the KRAS-BRAF complex were identified as those eliciting a decrease in the TR-FRET ratio relative to DMSO control wells.
# KRAS G12C-BRAF complex [4] = target: T1, KRAS G12C-BRAF complex (Homo sapiens, UniProt P01116+P62937, G12C); assay: KRAS G12C-BRAF NanoBit assay in HEK293 cells; format: cell-based; conditions: HEK293 stable cell pool, 3 hours of incubation
# T1 construct: expressed in transfected cells
# T1 sequence (P01116 1-188 isoform P01116-2 G12C): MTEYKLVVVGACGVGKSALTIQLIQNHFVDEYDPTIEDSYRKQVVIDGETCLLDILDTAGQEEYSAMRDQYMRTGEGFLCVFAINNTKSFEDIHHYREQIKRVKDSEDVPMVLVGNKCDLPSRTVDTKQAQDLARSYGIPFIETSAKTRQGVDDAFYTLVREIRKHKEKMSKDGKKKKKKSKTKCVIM
# T1 sequence (P62937 whole entry): as the sequence (P62937 whole entry) above
# Description: This assay is to measure the ability of tested compounds in disruption of the KRAS G12C-BRAF complex at the cellular level, we established the NanoBit cellular assay in mammalian HEK293 (ATCC) cells. HEK293 cells were grown and maintained using DMEM medium (Thermo Fisher Scientific) with 10% fetal bovine serum and 1% penicillin/streptomycin. Both KRAS G12C and BRAF RBD were cloned into the NanoBit vectors ([…] vectors system, Promega) with the orientations SmBit-KRAS G12C and BRAF RBD-LgBit, respectively, and co-transfected into HEK293 cells. Cells were then selected with 100 μg/mL Hygromycin B (10687010, Thermo Fisher) and Blasticidin (5 μg/mL) for 4 weeks to get the stable cell pool. On the day of the assay, 75 nL of compound solution was presented in a 384-well assay plate as a 16-point 3-fold dilution starting from a final concentration of 30 μM in DMSO. Then cells were seeded at 10,000 cells/25 μL/well in a 384-well plate. After 3 hours of incubation, 6 μL of volume of Nano-Glo® Live Cell Substrate (Promega) was added into each well. Monitor luminescence using ultra384 model in Envision at 20 minutes. Compounds that facilitate disruption of the KRAS G12C-BRAF RBD complex were identified as those eliciting a decrease of luminescence relative to DMSO control wells.
# [5] = tested on: phosphorylation of ERK, KRAS G12V in SW620; assay: pERK inhibition assay, G12V; format: cell-based, human; conditions: Homo sapiens, SW-620; SW620, 4 hours of incubation
# Description: as §3, §4, §5
# SW620 cells (KRAS G12V) = assay: Cell viability assay, G12V; format: cell-based, human; conditions: Homo sapiens, SW-620; SW620, 72 hrs, Cell Counting Kit-8
# Description: as §1, §2
# [6] = target: KRAS G12V binding to BRAF (Homo sapiens, UniProt P01116+P62937, G12V); assay: KRAS-BRAF with CYPA (500 nM) interaction assay (TR-FRET), G12V; format: biochemical; conditions: 3 hours
# Chain of KRAS G12V binding to BRAF (P01116 1-188 isoform P01116-2 G12V): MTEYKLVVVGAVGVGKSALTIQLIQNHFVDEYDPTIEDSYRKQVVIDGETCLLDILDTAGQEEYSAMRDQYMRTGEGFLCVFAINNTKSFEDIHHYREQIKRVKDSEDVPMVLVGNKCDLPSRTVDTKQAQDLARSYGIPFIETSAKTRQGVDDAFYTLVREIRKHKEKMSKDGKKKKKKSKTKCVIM
# Chain of KRAS G12V binding to BRAF (P62937 whole entry): as the sequence (P62937 whole entry) above
# Description: as §6
# KRAS G12C-BRAF complex [7] = target: T1, KRAS G12C-BRAF complex; assay: KRAS-BRAF with CYPA (500 nM) interaction assay (TR-FRET), G12C; format: biochemical; conditions: 3 hours
# Description: as §6
# AGS cells (KRAS G12D) = assay: Cell viability assay, G12D; format: cell-based, human; conditions: Homo sapiens, 72 hrs, Cell Counting Kit-8
# Description: as §1, §2
# [8] = tested on: phosphorylation of ERK, KRAS G12C in NCI-H358 cells; assay: pERK inhibition assay, G12C; format: cell-based, human; conditions: Homo sapiens; NCI-H358, 4 hours of incubation
# Description: as §3, §4, §5
IC50 [1] [µM],IC50 [2] [µM],IC50 [3] [µM],IC50 (KRAS G12C-BRAF complex [4]) [µM],IC50 [5] [µM],IC50 (SW620 cells (KRAS G12V)) [µM],IC50 [6] [µM],IC50 (KRAS G12C-BRAF complex [7]) [µM],IC50 (AGS cells (KRAS G12D)) [µM],IC50 [8] [µM],Compound
0.006,1.81,> 10,0.22,0.056,0.036,> 10,0.065,0.328,0.045,"CO[C@@H](C)c1ncc(N2CCN(C)CC2)cc1-c1c2c3cc(c(F)cc3n1CC(F)(F)F)-c1csc(n1)C[C@H](NC(=O)[C@H](C(C)C)N(C)C(=O)[C@H]1C[C@@H](C#Cc3ncc(C(F)(F)F)cn3)C1)C(=O)N1CCC[C@H](N1)C(=O)OCC(C)(C)C2 (atropisomer, axis not shown; (M)) [Example 13, cis-N-[(1S)-1-[[(7S,13S)-24-fluoro-(20M)-20-[2-[(1S)-1-methoxyethyl]-5-(4-methylpiperazin-1-yl)-3-pyridyl]-17,17-dimethyl-8,14-dioxo-21-(2,2,2-trifluoroethyl)-15-oxa-4-thia-9,21,27,28-tetrazapentacyclo[17.5.2.1^2,5.1^9,13.0^22,26]octacosa-1(25),2,5(28),19,22(26),23-hexaen-7-yl]carbamoyl]-2-methyl-propyl]-N-methyl-3-[2-[5-(trifluoromethyl)pyrimidin-2-yl]ethynyl]cyclobutanecarboxamide]"
0.001,0.02,4.3,0.036,0.003,0.007,1.88,1.66,> 10,0.005,"CCn1c(-c2cc(N3CCN(C)CC3)cnc2[C@H](C)OC)c2c3cc(c(F)cc31)-c1csc(n1)C[C@H](NC(=O)[C@H](C(C)C)N(C)C(=O)N1CC(C#CC(F)(F)F)C1)C(=O)N1CCC[C@H](N1)C(=O)OCC(C)(C)C2 (atropisomer, axis not shown; (M)) [Example 14, N-[(1S)-1-[[(7S,13S)-21-ethyl-24-fluoro-(20M)-20-[2-[(1S)-1-methoxyethyl]-5-(4-methylpiperazin-1-yl)-3-pyridyl]-17,17-dimethyl-8,14-dioxo-15-oxa-4-thia-9,21,27,28-tetrazapentacyclo[17.5.2.1^2,5.1^9,13.0^22,26]octacosa-1(25),2,5(28),19,22(26),23-hexaen-7-yl]carbamoyl]-2-methyl-propyl]-N-methyl-3-(3,3,3-trifluoroprop-1-ynyl)azetidine-1-carboxamide]"
0.166,> 10,> 10,0.075,0.198,0.653,2.25,0.24,3.34,0.221,"CO[C@@H](C)c1ncc(N2CCN(C)CC2)cc1-c1c2c3cc(c(F)cc3n1CC(F)(F)F)-c1csc(n1)C[C@H](NC(=O)[C@@H](CC(=O)N1CC(C#CC(F)(F)F)C1)C(C)C)C(=O)N1CCC[C@H](N1)C(=O)OCC(C)(C)C2 [Example 19, (2S)—N-[(7S,13S)-24-fluoro-(20M)-20-[2-[(1S)-1-methoxyethyl]-5-(4-methylpiperazin-1-yl)-3-pyridyl]-17,17-dimethyl-8,14-dioxo-21-(2,2,2-trifluoroethyl)-15-oxa-4-thia-9,21,27,28-tetrazapentacyclo[17.5.2.1^2,5.1^9,13.0^22,26]octacosa-1(25),2,5(28),19,22(26),23-hexaen-7-yl]-2-isopropyl-4-oxo-4-[3-(3,3,3-trifluoroprop-1-ynyl)azetidin-1-yl]butanamide]"
0.078,0.152,1.91,0.12,0.065,> 5,1.48,> 10,0.876,0.048,"CO[C@@H](C)c1ncc(N2CCN(C)CC2)cc1-c1c2c3cc(c(F)cc3n1CC(F)(F)F)-c1csc(n1)C[C@H](NC(=O)[C@H](C(C)C)N(C)C(=O)[C@H]1CC[C@@H](C#CC(F)(F)F)CC1)C(=O)N1CCC[C@H](N1)C(=O)OCC(C)(C)C2 (atropisomer, axis not shown; (M)) [Example 10, cis-N-[(1S)-1-[[(7S,13S)-24-fluoro-(20M)-20-[2-[(1S)-1-methoxyethyl]-5-(4-methylpiperazin-1-yl)-3-pyridyl]-17,17-dimethyl-8,14-dioxo-21-(2,2,2-trifluoroethyl)-15-oxa-4-thia-9,21,27,28-tetrazapentacyclo[17.5.2.1^2,5.1^9,13.0^22,26]octacosa-1(25),2,5(28),19,22(26),23-hexaen-7-yl]carbamoyl]-2-methyl-propyl]-N-methyl-4-(3,3,3-trifluoroprop-1-ynyl)cyclohexanecarboxamide]"
0.436,1.77,3.01,0.418,0.498,> 5,1.98,0.819,> 5,0.292,"CO[C@@H](C)c1ncc(N2CCN(C)CC2)cc1-c1c2c3cc(c(F)cc3n1CC(F)(F)F)-c1csc(n1)C[C@H](NC(=O)[C@H](C(C)C)N(C)C(=O)[C@H]1CC[C@H](C#CC(F)(F)F)CC1)C(=O)N1CCC[C@H](N1)C(=O)OCC(C)(C)C2 (atropisomer, axis not shown; (M)) [Example 9, trans-N-[(1S)-1-[[(7S,13S)-24-fluoro-(20M)-20-[2-[(1S)-1-methoxyethyl]-5-(4-methylpiperazin-1-yl)-3-pyridyl]-17,17-dimethyl-8,14-dioxo-21-(2,2,2-trifluoroethyl)-15-oxa-4-thia-9,21,27,28-tetrazapentacyclo[17.5.2.1^2,5.1^9,13.0^22,26]octacosa-1(25),2,5(28),19,22(26),23-hexaen-7-yl]carbamoyl]-2-methyl-propyl]-N-methyl-4-(3,3,3-trifluoroprop-1-ynyl)cyclohexanecarboxamide]"
